Measured values from patent US20240101544A1, “INHIBITORS OF QPCTL AND QPCT” (priority 2022, published 2024).
pIC50: −log10 of the molar value.

How the values were obtained:
[1] = target: QPCTL (Homo sapiens (Human), UniProt Q9NXS2); test: QPCTL Enzymatic Activity Assay (coupled-enzyme fluorescent assay, H-Gln-AMC substrate); assay type: biochemical; details: recombinant truncated human QPCTL 10-12 nM, 10 μM H-Gln-AMC; read-out: QPCTL Inhibition IC50
Method: Protein expression was induced when the bacterial culture OD600 was approximately 0.7 using 1 mM IPTG and the cells incubated at 20° C. for approximately 16 hours. The QPCTL was purified using nickel column purification, digested by TEV, followed by a second nickel column purification. The protein was further purified by size-exclusion chromatography using a Superdex™ 75 column. The final protein was concentrated using ultrafiltration tubes at a molecular weight cutoff of 10 kilodaltons and stored frozen in protein buffer (25 mM Tris pH 8.3, 150 mM NaCl).
QPCTL activity was measured in a coupled-enzyme assay using the QPCTL substrate, glutamine-7-amido-4-methylcoumarin (H-Gln-AMC, Bachem), which is converted to pyroglutamyl-AMC by QPCTL. Pyroglutamyl-AMC is then converted to the fluorescent molecule, AMC, by incubation with the human enzyme pyroglutamyl peptidase-1. […] Final concentrations of DMSO and test compounds were 2% and 30-100 μM, respectively. Following the incubation, H-Gln-AMC substrate was diluted in assay buffer and added to each well for a final concentration of 10 μM. The reaction was incubated for 60 min at 37° C., before stopping it by boiling at 100° C. for 5 minutes and cooling the plate at 4° C. for 3 minutes. […] Following incubation, the fluorescence was measured with a plate reader using excitation at 380 nm and emission at 460 nm. […] Concentration-response-curves and IC50 values (Table 17) were generated using curve fit software.

[2] = target: QPCT (rhQPCT) (Homo sapiens (Human), UniProt Q16769); test: QPCT Enzymatic Activity Assay (coupled-enzyme fluorescent assay, H-Gln-AMC substrate); assay type: biochemical; details: rhQPCT 10-12 nM, 10 μM H-Gln-AMC; read-out: QPCT Inhibition IC50
QPCT (rhQPCT), sequence (Q16769 29-361): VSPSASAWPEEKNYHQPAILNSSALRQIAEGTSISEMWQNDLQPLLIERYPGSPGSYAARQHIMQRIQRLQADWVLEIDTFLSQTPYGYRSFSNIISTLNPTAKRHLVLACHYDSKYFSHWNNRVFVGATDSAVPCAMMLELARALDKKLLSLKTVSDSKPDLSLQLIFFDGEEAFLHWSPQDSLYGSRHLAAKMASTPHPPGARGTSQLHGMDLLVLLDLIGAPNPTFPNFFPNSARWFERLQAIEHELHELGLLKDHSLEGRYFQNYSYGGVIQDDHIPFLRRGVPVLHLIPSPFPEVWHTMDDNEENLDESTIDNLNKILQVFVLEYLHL
Method: QPCT activity was measured in a coupled-enzyme assay using the QPCT substrate, glutamine-7-amido-4-methylcoumarin (H-Gln-AMC, Bachem), which is converted to pyroglutamyl-AMC by QPCT. Pyroglutamyl-AMC is then converted to the fluorescent molecule, AMC, by incubation with the human enzyme pyroglutamyl peptidase-1 (PGPEP-1). […] Following the incubation, H-Gln-AMC substrate was diluted in assay buffer and added to each well for a final concentration of 10 μM. The reaction was incubated for 60 min at 37° C., before stopping it by boiling at 100° C. for 5 minutes and cooling the plate at 4° C. for 3 minutes. […] Following incubation, the fluorescence was measured with a plate reader using excitation at 380 nm and emission at 460 nm. […] Concentration-response-curves and IC50 values (Table 17) were generated using Collaborative Drug Discovery software.

QPCTL, sequence (Q9NXS2 53-382): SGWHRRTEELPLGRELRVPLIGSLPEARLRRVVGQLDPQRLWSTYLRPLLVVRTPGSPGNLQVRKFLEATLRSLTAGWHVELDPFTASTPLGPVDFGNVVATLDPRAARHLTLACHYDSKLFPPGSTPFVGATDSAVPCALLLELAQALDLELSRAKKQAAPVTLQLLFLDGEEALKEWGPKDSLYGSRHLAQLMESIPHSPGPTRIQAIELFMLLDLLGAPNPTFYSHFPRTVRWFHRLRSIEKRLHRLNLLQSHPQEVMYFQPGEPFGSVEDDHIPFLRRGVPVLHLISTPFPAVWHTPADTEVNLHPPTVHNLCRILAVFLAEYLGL

Row | Compound | pIC50 [1] | pIC50 [2]
1 | 6′-fluoro-3-(4-(1-methyl-1H-imidazol-5-yl)piperidin-1-yl)-[2,3′-bipyridine]-4-carbonitrile [Example 134] | > 7.00 | > 7.00
2 | Cn1cnnc1C1CCN(c2c(-c3ccc(F)nc3)ccc(OC3CCOC3)c2C#N)CC1 (single isomer, unassigned) [Example 89, 3-(6-fluoropyridin-3-yl)-2-(4-(4-methyl-4H-1,2,4-triazol-3-yl)piperidin-1-yl)-6-((tetrahydrofuran-3-yl)oxy)benzonitrile] | > 7.00 | > 7.00
3 | N#Cc1cccc(-c2ccc(F)nc2)c1N1CCC(c2nnc[nH]2)CC1 [Example 49, 2-(4-(4H-1,2,4-triazol-3-yl)piperidin-1-yl)-3-(6-fluoropyridin-3-yl)benzonitrile] | 6.00 to 7.00 | 6.00 to 7.00
4 | Cc1ncn(-c2ccc(-c3ccc(F)nc3)c(N3CCC(c4nncn4C)CC3)c2C#N)n1 [Example 50, 3-(6-fluoropyridin-3-yl)-6-(3-methyl-1H-1,2,4-triazol-1-yl)-2-(4-(4-methyl-4H-1,2,4-triazol-3-yl)piperidin-1-yl)benzonitrile] | > 7.00 | > 7.00
5 | Cc1cc(-c2c(F)ccc(C#N)c2N2CCC(c3nncn3C)CC2)cnc1F [Example 53, 4-fluoro-3-(6-fluoro-5-methylpyridin-3-yl)-2-(4-(4-methyl-4H-1,2,4-triazol-3-yl)piperidin-1-yl)benzonitrile] | > 7.00 | > 7.00
6 | [2H]C([2H])([2H])n1cnnc1C1CCN(c2c(-c3ccc(F)nc3)ccc(-c3cnn(C)c3)c2C#N)CC1 [Example 54, 3-(6-fluoropyridin-3-yl)-6-(1-methyl-1H-pyrazol-4-yl)-2-(4-(4-(methyl-d3)-4H-1,2,4-triazol-3-yl)piperidin-1-yl)benzonitrile] | > 7.00 | > 7.00
7 | [2H]C([2H])([2H])n1cnnc1C1CCN(c2c(-c3ccnnc3)ccc(-c3cnn(C)c3)c2C#N)CC1 [Example 55, 6-(1-methyl-1H-pyrazol-4-yl)-2-(4-(4-(methyl-d3)-4H-1,2,4-triazol-3-yl)piperidin-1-yl)-3-(pyridazin-4-yl)benzonitrile] | > 7.00 | > 7.00
8 | [2H]C([2H])([2H])n1cnnc1C1CCN(c2c(-c3ccc(F)nc3)ccc(Cl)c2C#N)CC1 [Example 56, 6-chloro-3-(6-fluoropyridin-3-yl)-2-(4-(4-(methyl-d3)-4H-1,2,4-triazol-3-yl)piperidin-1-yl)benzonitrile] | > 7.00 | > 7.00
9 | [2H]C([2H])([2H])Oc1ccc(-c2ccc(F)nc2)c(N2CCC(c3nncn3C)CC2)c1C#N [Example 57, 3-(6-fluoropyridin-3-yl)-6-(methoxy-d3)-2-(4-(4-methyl-4H-1,2,4-triazol-3-yl)piperidin-1-yl)benzonitrile] | > 7.00 | > 7.00
10 | CN(C)CCOc1ccc(-c2ccnnc2)c(N2CCC(c3nncn3C)CC2)c1C#N [Example 58, 6-(2-(dimethylamino)ethoxy)-2-(4-(4-methyl-4H-1,2,4-triazol-3-yl)piperidin-1-yl)-3-(pyridazin-4-yl)benzonitrile] | > 7.00 | > 7.00
11 | Cc1cc(-c2c(F)ccc(C#N)c2N2CCC(c3nncn3C)CC2)cnn1 [Example 59, 4-fluoro-2-(4-(4-methyl-4H-1,2,4-triazol-3-yl)piperidin-1-yl)-3-(6-methylpyridazin-4-yl)benzonitrile] | 6.00 to 7.00 | 6.00 to 7.00
12 | Cc1cc(-c2ccc(-c3ccn(C)n3)c(C#N)c2N2CCC(c3nncn3C)CC2)cnn1 [Example 61, 6-(1-methyl-1H-pyrazol-3-yl)-2-(4-(4-methyl-4H-1,2,4-triazol-3-yl)piperidin-1-yl)-3-(6-methylpyridazin-4-yl)benzonitrile] | > 7.00 | > 7.00

Results, then the compound that gave them:

Row | pIC50 [1] | pIC50 [2] | Compound
13 | 6.00 to 7.00 | 6.00 to 7.00 | Cn1cnnc1C1CCN(c2c(C#N)cccc2-c2cnccn2)CC1 [Example 5, 2-[4-(4-methyl-4H-1,2,4-triazol-3-yl)piperidin-1-yl]-3-(pyrazin-2-yl)benzonitrile]
14 | 5.00 to 6.00 | 5.00 to 6.00 | Cn1cnnc1C1CCN(c2c(C#N)cccc2-c2cnccc2O)CC1 [Example 7, 3-(4-hydroxypyridin-3-yl)-2-[4-(4-methyl-4H-1,2,4-triazol-3-yl)piperidin-1-yl]benzonitrile]
15 | 5.00 to 6.00 | 6.00 to 7.00 | COc1ccncc1-c1cccc(C#N)c1N1CCC(n2ccnc2)CC1 [Example 13, 2-[4-(1H-imidazol-1-yl)piperidin-1-yl]-3-(4-methoxypyridin-3-yl)benzonitrile]
16 | 6.00 to 7.00 | 6.00 to 7.00 | COc1ccncc1-c1cccc(C#N)c1N1CCC(c2cncs2)CC1 [Example 14, 3-(4-methoxypyridin-3-yl)-2-[4-(1,3-thiazol-5-yl)piperidin-1-yl]benzonitrile]
17 | 6.00 to 7.00 | 6.00 to 7.00 | COc1ccncc1-c1cccc(C#N)c1N1CCC(c2cnc(N)s2)CC1 [Example 17, 2-[4-(2-amino-1,3-thiazol-5-yl)piperidin-1-yl]-3-(4-methoxypyridin-3-yl)benzonitrile]
18 | < 5.00 | < 5.00 | COc1ccncc1-c1cccc(C#N)c1N1CCC(n2cnnc2C)CC1 [Example 18, 3-(4-methoxypyridin-3-yl)-2-[4-(3-methyl-4H-1,2,4-triazol-4-yl)piperidin-1-yl]benzonitrile]
19 | 6.00 to 7.00 | > 7.00 | Cn1cnnc1C1CCN(c2c(C#N)cccc2-c2cncc3c2OCCN3)CC1 [Example 20, 2-[4-(4-methyl-4H-1,2,4-triazol-3-yl)piperidin-1-yl]-3-{2H,3H,4H-pyrido[4,3-b][1,4]oxazin-8-yl}benzonitrile]
20 | 6.00 to 7.00 | 6.00 to 7.00 | COc1ccncc1-c1cccc(C#N)c1N1CCC(c2nnc(N)s2)CC1 [Example 21, 2-[4-(5-amino-1,3,4-thiadiazol-2-yl)piperidin-1-yl]-3-(4-methoxypyridin-3-yl)benzonitrile]
21 | 6.00 to 7.00 | 6.00 to 7.00 | CN1CCOc2c(-c3cccc(C#N)c3N3CCC(c4nncn4C)CC3)cncc21 [Example 22, 3-{4-methyl-2H,3H,4H-pyrido[4,3-b][1,4]oxazin-8-yl}-2-[4-(4-methyl-4H-1,2,4-triazol-3-yl)piperidin-1-yl]benzonitrile]
22 | 6.00 to 7.00 | 6.00 to 7.00 | Cn1cnnc1C1CCN(c2c(C#N)cccc2-c2cncc3c2OCCN3CCO)CC1 [Example 23, 3-[4-(2-hydroxyethyl)-2H,3H,4H-pyrido[4,3-b][1,4]oxazin-8-yl]-2-[4-(4-methyl-4H-1,2,4-triazol-3-yl)piperidin-1-yl]benzonitrile]
23 | 6.00 to 7.00 | 6.00 to 7.00 | Cn1cnnc1C1CCN(c2c(C#N)cccc2-c2ccc(C(F)(F)F)nc2)CC1 [Example 29, 2-[4-(4-methyl-4H-1,2,4-triazol-3-yl)piperidin-1-yl]-3-[6-(trifluoromethyl)pyridin-3-yl]benzonitrile]
24 | > 7.00 | > 7.00 | COc1ccncc1-c1cccc(C#N)c1N1CCC(c2cncn2C)CC1 [Example 31, 3-(4-methoxypyridin-3-yl)-2-[4-(1-methyl-1H-imidazol-5-yl)piperidin-1-yl]benzonitrile]
25 | > 7.00 | > 7.00 | COc1ccncc1-c1ccc(-c2ccccc2)c(C#N)c1N1CCC(c2nncn2C)CC1 [Example 32, 4-(4-methoxypyridin-3-yl)-3-[4-(4-methyl-4H-1,2,4-triazol-3-yl)piperidin-1-yl]-[1,1′-biphenyl]-2-carbonitrile]
26 | > 7.00 | 6.00 to 7.00 | Cn1cnnc1C1CCN(c2c(C#N)cccc2-c2ccc(Cl)nc2)CC1 [Example 40, 3-(6-chloropyridin-3-yl)-2-[4-(4-methyl-4H-1,2,4-triazol-3-yl)piperidin-1-yl]benzonitrile]
27 | > 7.00 | > 7.00 | Cn1cnnc1C1CCN(c2c(C#N)cccc2-c2cnnc(O)c2)CC1 [Example 52, 3-(6-hydroxypyridazin-4-yl)-2-(4-(4-methyl-4H-1,2,4-triazol-3-yl)piperidin-1-yl)benzonitrile]
28 | 6.00 to 7.00 | 6.00 to 7.00 | N#Cc1cccc(-c2ccc(F)nc2)c1N1CCC(c2nncs2)CC1 [Example 72, 2-(4-(1,3,4-thiadiazol-2-yl)piperidin-1-yl)-3-(6-fluoropyridin-3-yl)benzonitrile]
